# Values quoted from earlier work in patent US20250347706A1, “DISPOSABLE CARTRIDGE FOR CLASSIFICATION OF ANTICOAGULANT AND METHOD OF USE” (Haemonetics Corporation, priority 2023, published 2025).
# Conditions: for half-life compared with dabigatran: in vivo
Compound,half-life compared with dabigatran,increased half-life (patients with severe renal impairment compared to healthy volunteers (Dager et al.)),"half-life (lengthened in patients with renal dysfunction, Pradaxa product information)"
COc1ccc(-n2nc(C(N)=O)c3c2C(=O)N(c2ccc(N4CCCCC4=O)cc2)CC3)cc1 [apixaban],shorter half-lives than dabigatran,up to 44%,
O=C(NC[C@H]1CN(c2ccc(N3CCOCC3=O)cc2)C(=O)O1)c1ccc(Cl)s1 [rivaroxaban],shorter half-lives than dabigatran,,
dabigatran,,,12 to 17 h
